Data on 4 molecules can be found in patent US20110082543A1, “Methods and Devices for Preventing or Delaying Posterior Capsule Opacification” (CLEO COSMETIC AND PHARMACEUTICAL COMPANY, LLC, priority 2009, published 2011).

For one test, the system named is rabbit LECs. The conditions noted are these: mechanism unknown; cited from earlier work.
Test [1] relates to lens epithelial cells from bovine anterior capsules. Description: Outgrowth of lens epithelial cells from bovine anterior capsules on treated slides. The class given is cell-based. On the procedure:
The tension ring is then further treated with glutaraldehyde (GA), rinsed of excess GA, and then treated with an MTX-protein conjugate. […] Control tension rings are treated with unconjugated protein (no MTX).
Outgrowth was followed for six days.

Test [2] deals with epithelial cells of the lens capsule. The conditions noted are these: solution instilled into the anterior chamber after lens removal; cited from earlier work.
The mark [3] stands for this setting: treated slides, outgrowth followed for six days, first evaluation.

In the case of `O=C(O[C@@H]1Cc2c(O)cc(O)cc2O[C@@H]1c1cc(O)c(O)c(O)c1)c1cc(O)c(O)c(O)c1` [(−)-epigallocatechin-3-gallate (EGCG), (−)-epigallocatechin-3-gallate], the “inhibition of proliferation of rabbit LECs” value in the test with rabbit LECs is “inhibit the proliferation”.

As to `CN(Cc1cnc2nc(N)nc(N)c2n1)c1ccc(C(=O)N[C@@H](CCC(=O)O)C(=O)O)cc1` [MTX (alone), methotrexate], the “outgrowth of lens epithelial cells” value in test [1] (subsequent evaluations after the first evaluation period) is given as “not during subsequent evaluations”; in test [1] (setting [3]), “inhibited outgrowth”. In addition, the “destroying epithelial cells of the lens capsule which remain after cataract surgery” value in test [2] is given as “effective”.

On to bovine serum albumin [protein (alone)], for which the “outgrowth of lens epithelial cells” value in test [1] (setting [3]) is “allowed good outgrowth”.

For the molecule “covalent conjugate of MTX: covalent conjugate of MTX with bovine serum albumin prepared using ECDI, attached via glutaraldehyde to the ethylenediamine plasma-treated surface”, the “outgrowth of lens epithelial cells” value was “inhibited outgrowth” in test [1] (slides rinsed and evaluated again, second set of lens capsules); “somewhat inhibited, but not completely” in test [1] (third set of cells on re-used slides); “inhibited cell outgrowth” in test [1] (setting [3]).
